Tests used:
opioid receptors [1] = conditions: metabolite of naltrexone; cited from earlier work
[2] = Passive loading of naloxone and naltrexone into MLV's liposomes; type: physicochemical
opioid receptors [3] = conditions: in vivo; cited from earlier work
μ-opioid receptor = μ-opioid receptor (Homo sapiens, UniProt P35372); conditions: cited from earlier work
μ-receptor = μ-receptor (Homo sapiens, UniProt P35372); conditions: in vitro; cited from earlier work
δ-receptor [4] = target: T1, δ-receptor (Homo sapiens, UniProt P41143); conditions: in vitro; cited from earlier work
δ-receptor [5] = target: T1, δ-receptor; conditions: in vitro; cited from earlier work; remark: listed apart in the source
κ-receptor [6] = target: T2, κ-receptor (Homo sapiens, UniProt P41145); conditions: in vitro; cited from earlier work
κ-receptor [7] = target: T2, κ-receptor; conditions: in vitro; cited from earlier work; remark: listed apart in the source

T2 sequence (P41145 whole entry): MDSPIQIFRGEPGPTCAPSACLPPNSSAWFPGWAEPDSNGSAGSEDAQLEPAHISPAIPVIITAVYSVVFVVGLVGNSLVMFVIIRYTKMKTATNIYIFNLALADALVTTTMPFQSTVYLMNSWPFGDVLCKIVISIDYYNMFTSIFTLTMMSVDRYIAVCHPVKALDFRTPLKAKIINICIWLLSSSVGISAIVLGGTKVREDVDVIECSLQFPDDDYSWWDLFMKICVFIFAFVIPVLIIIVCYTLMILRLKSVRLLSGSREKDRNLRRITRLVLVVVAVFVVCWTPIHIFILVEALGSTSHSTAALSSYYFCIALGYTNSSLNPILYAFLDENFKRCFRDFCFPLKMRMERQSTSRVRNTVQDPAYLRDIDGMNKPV
Sequence of μ-opioid receptor (P35372 whole entry, species assumed): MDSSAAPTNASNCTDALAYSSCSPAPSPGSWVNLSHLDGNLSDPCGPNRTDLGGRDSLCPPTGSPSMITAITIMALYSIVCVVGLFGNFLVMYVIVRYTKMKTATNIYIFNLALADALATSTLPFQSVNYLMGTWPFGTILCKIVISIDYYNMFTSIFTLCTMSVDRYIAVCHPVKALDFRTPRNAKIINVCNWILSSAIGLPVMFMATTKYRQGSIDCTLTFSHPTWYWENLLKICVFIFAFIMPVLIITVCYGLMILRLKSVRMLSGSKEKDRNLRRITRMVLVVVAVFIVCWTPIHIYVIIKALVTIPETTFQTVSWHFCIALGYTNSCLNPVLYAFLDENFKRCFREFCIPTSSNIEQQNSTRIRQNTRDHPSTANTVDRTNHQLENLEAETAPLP
T1 sequence (P41143 whole entry): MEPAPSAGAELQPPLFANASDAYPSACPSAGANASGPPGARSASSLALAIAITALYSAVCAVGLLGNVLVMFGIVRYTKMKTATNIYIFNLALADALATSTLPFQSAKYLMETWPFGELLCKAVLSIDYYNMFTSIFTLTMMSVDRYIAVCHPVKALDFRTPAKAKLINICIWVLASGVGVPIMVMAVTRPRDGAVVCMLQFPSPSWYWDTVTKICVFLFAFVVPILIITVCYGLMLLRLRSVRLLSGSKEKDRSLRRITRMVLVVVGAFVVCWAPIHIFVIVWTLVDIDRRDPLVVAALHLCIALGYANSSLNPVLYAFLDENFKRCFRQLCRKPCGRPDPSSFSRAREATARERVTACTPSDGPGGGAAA
Sequence of μ-receptor (P35372 whole entry, species assumed): as the sequence (P35372 whole entry, species assumed) above

Compound: Oc1ccc2c3c1O[C@H]1[C@H](O)CC[C@@]4(O)[C@@H](C2)N(CC2CC2)CC[C@]314 [60-naltrexol]
- antagonist activity (opioid receptors [1]): active antagonist

Compound: C=CCN1CC[C@]23c4c5ccc(O)c4O[C@H]2C(=O)CC[C@@]3(O)[C@H]1C5 [Naloxone, 17-allyl-4,5α-epoxy-3,14-dihydroxymorphinan-6-one]
- Liposomal naloxone conc. [2]: 6.8 mg/mL

Compound: O=C1CC[C@@]2(O)[C@H]3Cc4ccc(O)c5c4[C@@]2(CCN3CC2CC2)[C@H]1O5 [Naltrexone, 17-(cyclopropylmethyl)-4,5α-epoxy-3,14-dihydroxymorphinan-6-one]
- duration of effect (opioid receptors [3]): last about a day
- Liposomal naltrexone conc. [2]: 8.1 mg/mL

Compound: NC(=O)c1ccc2c(c1O)[C@]13CCN(CC4CC4)[C@H](C2)[C@]1(O)CCC(=O)C3 [Samidorphan, 3-carboxamido-4-hydroxynaltrexone]
- greater affinity at mu-opioid receptor compared to naltrexone (μ-opioid receptor): five
- affinity at μ-receptor (μ-opioid receptor; in vitro): high affinity
- action at μ-receptor (μ-receptor): antagonist
- affinity at δ-receptor (δ-receptor [4]): high affinity
- action at δ-receptor (δ-receptor [5]): partial agonist
- action at κ-receptor (κ-receptor [6]): partial agonist
- affinity at κ-receptor (κ-receptor [7]): high affinity

— patent US20220313686A1, “PHARMACEUTICAL COMPOSITIONS COMPRISING A COMBINATION OF OPIOID ANTAGONISTS” (YISSUM RESEARCH DEVELOPMENT COMPANY OF THE HEBREW …, priority 2019, published 2022)
